Patent US8722703B2, “Fused amino pyridines for the treatment of brain tumors” (Curis, Inc., priority 2009, dated 2014)

How the values were obtained:
HSP90 = HSP90 (Homo sapiens, UniProt P07900); experiment: HSP90 competition binding (fluorescence polarization) assay
Text: (b) HSP90 Competition Binding (Fluorescence Polarization) Assay.
A fluorescein isothiocyanate (FITC) labeled GM was purchase from InvivoGen (ant-fgl-1). The interaction between HSP90 and labeled GM forms the basis for the fluorescence polarization assay. A free and fast-tumbling FITC labeled GM emits random light with respect to the plane of polarization plane of excited light, resulting in a lower polarization degree (mP) value. When GM is bound to HSP90, the complex tumble slower and the emitted light is polarized, resulting in a higher mP value. […] The assay buffer contained 20 mM HEPES (pH 7.3), 50 mM KCl, 1 mM DTT, 50 mM MgCl2, 20 mM Na2MoO4, 0.01% NP40 with 0.1 mg/ml bovine gamma-globulin.

[1] = Mouse brain concentrations after oral 30 mg/Kg in nude mice with U87MG xenografts; type: in vivo; settings: oral (30 mg/Kg) delivery, U87MG xenografts; for concentration at 0 hr / concentration at 0.5 hr / concentration at 1 hr / concentration at 3 hr / concentration at 6 hr / concentration at 24 hr: female, athymic nude (CD-1 nu/nu), mouse, brain, read-out: HSP90 Compounds in Mouse Brain
[2] = tested on: H1975 orthotopic lung tumor; experiment: Efficacy study in the H1975 orthotopic lung tumor (NSCLC) model; type: in vivo, nude mice; settings: Compound-15 120 mg/kg orally once every two days, erlotinib 50 mg/kg orally once a day, 5 wk
Experimental: Dose-dependent efficacy study of Compound-15 in H1975 orthotopic lung tumor model (n=11): Mice were treated with Compound-15 (20, 40, 80, and 120 mg/kg) starting 4 day after tumor implantation.

[3] = tested on: A549 orthotopic lung tumor; experiment: Efficacy study in A549 orthotopic lung tumor model; type: in vivo, nude mice; settings: Compound-15 120 mg/kg orally once every two days, erlotinib 50 mg/kg orally once a day, 4 wk
H1975 intracranial tumor = experiment: Efficacy study in H1975 intracranial metastasis model; type: in vivo, nude mice; settings: Compound-15 120 mg/kg orally once every two days, lapatinib 75 mg/kg orally twice a day, 4 wk

IC50 (HSP90) [nM]	concentration at 0 hr [1] [ng/g]	concentration at 0.5 hr [1] [ng/g]	concentration at 1 hr [1] [ng/g]	concentration at 3 hr [1] [ng/g]	concentration at 6 hr [1] [ng/g]	concentration at 24 hr [1] [ng/g]	AUC in mouse brain [1] [ng·h/g]	SMILES	also measured
100 to 1000								CC(C)(C)CNCCCn1c(Sc2cc3c(cc2Br)OCO3)nc2c(N)nccc21 [Compound 10]	
100 to 1000								CC(C)(C)CNCCCn1c(Sc2cc3c(cc2I)OCO3)nc2c(N)nccc21 [Compound 11, 2-(6-iodobenzo[d][1,3]dioxol-5-ylthio)-1-(3-(neopentylamino)propyl)-1H-imidazo[4,5-c]pyridin-4-amine]	
	0	2.5	2.2	3.7	0.9	1.3	36.7	NC(=O)CCCn1c(Sc2cc3c(cc2I)OCO3)nc2c(N)nccc21 [Compound 22]	
	0	5.4	13.6	21.5	9.1	3	231.8	CC(C)(C)CNCCn1c(Sc2cc3c(cc2S(C)(=O)=O)OCO3)nc2c(N)nccc21 [Compound 23]	
								C#Cc1cccc(Nc2ncnc3cc(OCCOC)c(OCCOC)cc23)c1 [erlotinib, reference compound]	animal survival [2]: no therapeutic benefit; animal survival [3]: no antitumor effect
								CS(=O)(=O)CCNCc1ccc(-c2ccc3ncnc(Nc4ccc(OCc5cccc(F)c5)c(Cl)c4)c3c2)o1 [lapatinib, reference compound]	animal survival (H1975 intracranial tumor): lack of lapatinib efficacy
